Reference: patent US7879370B2, “Composition of which chief ingredient is polysaccharides having an immunoregulatory function” (Merican Corporation, priority 2006, dated 2011)

Format: in vivo, BALB/c mice
Settings: mouse antiallergy test, days 0 to 22; FIG. 9
Method: Body weight was determined with a scale on days 0, 7, 14, and 22. General symptoms were observed daily from day 0 to day 22. Blood plasma analysis was conducted by measuring the OVA-specific IgE level using plasma obtained by centrifuging blood drawn from the ophthalmic vein on days 0, 14, 18, and 22.

O=P1(N(CCCl)CCCl)NCCCO1 (stereo not shown) [cyclophosphamide]
change in body weights: reduction in the body weight
